Results on 15 molecules are retold here after paper PMC6941357, “An in vitro toolbox to accelerate anti-malarial drug discovery and development” (Malaria Journal, 2020).

Where two headings read alike, the source gives them in different places. Bounds are passed on as bounds.

Series [1] in a line: Blood to plasma partitioning. It is filed as in vitro ADME, human. To be noted: 37 °C; for blood plasma ratio at 1000 ng/mL: human, whole blood, pH 7.4, human whole blood, read-out: B/P (whole blood to plasma partitioning ratio). How it is done: Human whole blood was collected and supplied by the Volunteer Blood Donor Registry (Clinical Translation Centre, Walter & Eliza Hall Institute of Medical Research, Parkville, Australia) and used on the day of collection. The haematocrit (Hct) was determined by centrifugation (13,000×g for 3 min using Clemets® Microhaematocrit centrifuge and Safecap® Plain Self-sealing Mylar wrapped capillary tubes) to ensure it was between 0.40 and 0.48. An aliquot was centrifuged (Heraeus, Multifuge 3 S-R; 4500×g) for 10 min to obtain plasma required for matrix matching purposes as described below.
Two aliquots of the spiked whole blood were transferred to fresh microcentrifuge tubes and maintained at 37 °C/5% CO2 in a humidified incubator. The pH was confirmed to be 7.4 ± 0.1 at the start and end of the incubation. At each time point (30 min and 4 h), one whole blood tube was removed from the incubator and mixed by gentle inversion, after which four replicate blood samples were taken and matrix matched with an equal volume of blank plasma. The remainder of the blood sample was centrifuged (Eppendorf, Mini Spin plus; 6700×g) for 2 min for the collection of 4 replicate plasma samples which were similarly matrix matched with an equal volume of blank whole blood. The 1:1 mixtures of blood/plasma were mixed, snap frozen in dry ice and stored at − 80 °C until analysis by LC–MS (Additional file 1: Table S2) against calibration standards prepared in the same mixed matrix. Any further distribution of compound into RBCs at this stage was irrelevant as the cells were lysed during the sample preparation and the total concentration in the mixed matrix was measured for both the calibration standards and samples.
The apparent whole blood-to-plasma partitioning ratio (B/P) was calculated as the ratio of the average concentration in the blood sample to that in the plasma fraction of the same whole blood sample. A standard deviation (SD) for each B/P value was calculated using the propagation of errors approach as described previously.

Another series deals with Caco-2 cell monolayers. To be noted: cited from earlier work; for Literature ER: Caco-2, ref [33], [35] of Additional file 1; for Literature Papp: Caco-2 A-B, ref [33]–[35] of Additional file 1; for A–B Papp / B–A Papp: matrix: human plasma, corrected for fu.
Series [2] in a line: Plasma protein binding via rapid equilibrium dialysis (RED), 10% plasma. In kind it is in vitro ADME, human. To be noted: human, 10% pooled plasma (diluted 1:10), pH 7.4, RED, 10% plasma corrected for dilution; for fraction unbound at 6 h: 6 h dialysis; for fraction unbound at 24 h: presaturation of device and 24 h dialysis. The method, then: (§1) Pooled human plasma (n = 3–4 donors) was obtained by centrifugation of blood (collected by the Australian Red Cross Blood Service, Melbourne, Australia or the Volunteer Blood Donor Registry, Clinical Translation Centre, Walter & Eliza Hall Institute of Medical Research, Parkville, Australia), or sourcing pooled plasma directly from commercial sources (Innovative Research Inc, MI) and stored frozen at − 80 °C.
(§2) Plasma was diluted 1:10 with pH 7.4 phosphate buffer (prepared by mixing 0.1 M sodium dihydrogen phosphate and 0.1 M disodium hydrogen phosphate (both containing 0.04 M NaCl) to pH 7.4) and spiked with compound to achieve a total measured concentration of ~ 1000–3000 ng/mL. Diluted plasma was vortex mixed briefly and aliquots (n = 3–4) were transferred to RED (Thermo Fisher Scientific, Waltham, MA) units that were placed at 37 °C under ambient atmosphere on a plate shaker. […] At the end of the dialysis period, samples were removed from both the donor and dialysate chambers of the RED units. […] Fraction unbound values were calculated for each individual RED unit and the mean and SD calculated for n = 3–4 replicates.
(§3) Briefly, the RED device was exposed for two 30 min periods and one overnight period to fresh solutions of compound prepared in pH 7.4 buffer at approximately 10% of the total dialysis concentration. Following the preincubations, solutions were removed from the RED device and discarded. […] Samples were removed and analysed as described above.
(§4) For binding assessments using 10% plasma, the unbound fraction (fu) in neat plasma was calculated using the average values for Ctotal and Cunbound and Eq.
A general note: Equilibrium dialysis compares concentrations on both sides of a semipermeable membrane.

Another series deals with human plasma. The description is as above. It is filed as in vitro ADME. To be noted: RED, 10% plasma corrected for dilution, 6 h dialysis. How it is done:
as §1, §2, §3, §4

The conditions of series [3]: human, cited from earlier work.

`CC(C)NC(=N)NC(=N)Nc1ccc(Cl)c(Cl)c1` [Chlorproguanil]: the “B/P (whole blood to plasma partitioning ratio)” value in series [1] (human whole blood) came to 3.3 ± 0.38. The blood plasma ratio at 1000 ng/mL in series [1] was above 3.

With `CCNCc1cc(Nc2ccnc3cc(Cl)ccc23)ccc1O` [Desethylamodiaquine], the blood plasma ratio at 1000 ng/mL in series [1] came to 3.26 ± 0.35.

For `C[C@H]1[C@H](N2CCS(=O)(=O)CC2)O[C@@H]2O[C@@]3(C)CC[C@H]4[C@H](C)CC[C@@H]1[C@@]24OO3` [Artemisone], in the series with Caco-2 cell monolayers, the “Literature ER” value is 0.8 and the “Literature Papp” value is on record as 59.6 ± 4.2 10-6 cm/sec.

As to `CC[C@H]1OC(=O)[C@H](C)[C@@H](O[C@H]2C[C@@](C)(OC)[C@@H](O)[C@H](C)O2)[C@H](C)[C@@H](O[C@@H]2O[C@H](C)C[C@H](N(C)C)[C@H]2O)[C@](C)(O)C[C@@H](C)CN(C)[C@H](C)[C@@H](O)[C@]1(C)O` [Azithromycin], the free fraction (fraction unbound) – broadly, the share of the substance not bound to proteins or other matrix – at 6 h in series [2] came to 0.34. For the same molecule, the “Fraction unbound, human plasma” value with human plasma is given as 0.35.

`COc1ccc2nc3cc(Cl)ccc3c(Nc3cc(CN4CCCC4)c(O)c(CN4CCCC4)c3)c2n1` [Pyronaridine] gave a fraction unbound at 6 h in series [2] of 0.09 ± 0.012. For the same molecule, the blood plasma ratio at 1000 ng/mL in series [1] was found to be 9 ± 0.83. For the same molecule, in the series with Caco-2 cell monolayers, the “Literature ER” value was 1.8 and the “Literature Papp” value was 10.3 ± 0.3 10-6 cm/sec.

`OC(c1cc(C(F)(F)F)nc2c(C(F)(F)F)cccc12)C1CCCCN1` (stereo not shown) [Mefloquine]: in the series with Caco-2 cell monolayers, the “Literature ER” value is on record as 0.7, the “Literature Papp” value is listed as 9.9 ± 0.7 10-6 cm/sec, the “A–B Papp” value is listed as 180 ± 20 10^−6 cm/s and the “B–A Papp” value is given as 150 ± 10 10^−6 cm/s.

As to `Cc1nc(Nc2ncc(N3CCN(C)[C@H](C)C3)c(Nc3cc(C)n(C)n3)n2)cc(C2CC2)c1F` [MMV253], the free fraction (fraction unbound) at 24 h in series [2] was 0.017 ± 0.0002. Further, the blood plasma ratio at 1000 ng/mL in series [1] amounted to 1 ± 0.05.

Turning to `C[C@H]1Cc2c([nH]c3cc(Cl)c(F)cc23)[C@@]2(N1)C(=O)Nc1ccc(Cl)cc12` [KAE609], in series [2], the fraction unbound at 6 h stood at 0.002 and the fraction unbound at 24 h came to 0.0016 ± 0.0001. The blood plasma ratio at 1000 ng/mL in series [1] was 0.66 ± 0.04.

In series [2], `CCCCN(CCCC)CC(O)c1cc(Cl)cc2c1-c1ccc(Cl)cc1/C2=C/c1ccc(Cl)cc1` (stereo not shown) [Lumefantrine] registered a fraction unbound at 6 h below 0.0001 and a fraction unbound at 24 h below 0.0001. Further, in series [1], the blood plasma ratio at 1000 ng/mL was 0.48 ± 0.09.

With `N#Cc1cc(NC(=O)[C@H]2c3ccccc3C(=O)N(CC(F)(F)F)[C@@H]2c2cccnc2)ccc1F` [SJ733], in series [2], the fraction unbound at 6 h came to 0.1 and the unbound share (fraction unbound) at 24 h worked out at 0.085 ± 0.012.

With `CC(C)(N)CNC(=O)C[C@H]1CC[C@]2(CC1)OO[C@]1(O2)C2CC3CC(C2)CC1C3` [OZ277, Arterolane], in series [2], the fraction unbound at 6 h came out at 0.056. The half-life (as a rule, the time in which the quantity being followed falls by half) in series [3] (in vivo, ref Table 10) is around 3 h. Further, in series [3], the apparent clearance (CL/F) (as a rule, clearance divided by bioavailability, as obtained after extravascular dosing) is reported as 184 L/h; the Food effect entry is listed as “no”; the V/F is on record as 929 L; the half-life was 3 h.

`O=C1C(O)=C([C@H]2CC[C@H](c3ccc(Cl)cc3)CC2)C(=O)c2ccccc21` [Atovaquone]: in series [2], the fraction unbound at 24 h was below 0.0001. Moreover, in the series with Caco-2 cell monolayers, the “A–B Papp” value is > 300 10^−6 cm/s and the “B–A Papp” value is reported as > 300 10^−6 cm/s.

`CCCCN(CCCC)CCC(O)c1cc2c(Cl)cc(Cl)cc2c2cc(C(F)(F)F)ccc12` (stereo not shown) [Halofantrine]: in series [2], the fraction unbound at 24 h was below 0.0001. Moreover, in the series with Caco-2 cell monolayers, the “A–B Papp” value is on record as > 300 10^−6 cm/s and the “B–A Papp” value is listed as > 300 10^−6 cm/s.

As for `CO[C@H]1O[C@@H]2O[C@@]3(C)CC[C@H]4[C@H](C)CC[C@@H]([C@H]1C)[C@@]24OO3` [Artemether], in series [2], the fraction unbound at 24 h came out at 0.066.

Turning to `C[C@H]1[C@@H](O)O[C@@H]2O[C@@]3(C)CC[C@H]4[C@H](C)CC[C@@H]1[C@@]24OO3` [Dihydroartemisinin], the “Literature Papp” value with Caco-2 cell monolayers is recorded as 38.6 ± 5.0 10-6 cm/sec. Also, the half-life entry in series [3] (in vivo, ref Table 10) is “approximately 1 h”. Also, in series [3], the apparent clearance (CL/F) is reported as 272 L/h, the Food effect result is listed as “no” and the V/F was 385 L.
